Results: ChEMBL document CHEMBL5634160, “Synthesis, biological evaluation and action mechanism of 7H-[1,2,4] triazolo [3,4-b] [1,3,4] thiadiazine-phenylhydrazone derivatives as α-glucosidase inhibitors” (Eur J Med Chem, 2023)

What was measured:
Alpha-glucosidase [1] = molecular target: T1, Alpha-glucosidase (Saccharomyces cerevisiae S288c, UniProt P53341+P38158+P07265); assay: Inhibition of Saccharomyces cerevisiae alpha-glucosidase using nitrophenol-alpha-D-glucopyranoside (pNPG) as substrate incubated for 15 mins; type: protein assay
Alpha-glucosidase [2] = molecular target: T1, Alpha-glucosidase; assay: Competitive inhibition of Saccharomyces cerevisiae alpha-glucosidase using nitrophenol-alpha-D-glucopyranoside (pNPG) as substrate at 24 to 48 uM measured after 15 mins by Lineweaver-Burk plot analysis; type: protein assay
Alpha-glucosidase [3] = molecular target: T1, Alpha-glucosidase; assay: Non-competitive inhibition of Saccharomyces cerevisiae alpha-glucosidase using nitrophenol-alpha-D-glucopyranoside (pNPG) as substrate at 24 to 48 uM measured after 15 mins by Lineweaver-Burk plot analysis; type: protein assay
[4] = molecular target: T2, Alpha-glucosidase (Saccharomyces cerevisiae S288c) (UniProt P53341+P38158+P07265); assay: Binding affinity to Saccharomyces cerevisiae alpha-glucosidase assessed as decrease in fluorescence intensity at 0 to 45 uM by fluorescence quenching study relative to control; type: protein assay; parameters: scale not given: the % may be the effect or the level left; settings: dose 0-45 µM
[5] = molecular target: T2, Alpha-glucosidase (Saccharomyces cerevisiae S288c); assay: Binding affinity to Saccharomyces cerevisiae alpha-glucosidase assessed as quenching constant value (Ksv) by fluorescence quenching study; type: protein assay
[6] = molecular target: T2, Alpha-glucosidase (Saccharomyces cerevisiae S288c); assay: Binding affinity to Saccharomyces cerevisiae alpha-glucosidase assessed as quenching constant value (Kq) by fluorescence quenching study; type: protein assay
[7] = molecular target: T2, Alpha-glucosidase (Saccharomyces cerevisiae S288c); assay: Binding affinity to Saccharomyces cerevisiae alpha-glucosidase assessed as quenching constant value (Ka) by fluorescence quenching study; type: protein assay
[8] = molecular target: T2, Alpha-glucosidase (Saccharomyces cerevisiae S288c); assay: Binding affinity to Saccharomyces cerevisiae alpha-glucosidase assessed as decrease in fluorescence intensity peak 1 by 3D spectra assay; type: protein assay; parameters: scale not given: the % may be the effect or the level left
[9] = molecular target: T2, Alpha-glucosidase (Saccharomyces cerevisiae S288c); assay: Binding affinity to Saccharomyces cerevisiae alpha-glucosidase assessed as decrease in fluorescence intensity peak 2 by 3D spectra assay; type: protein assay; parameters: scale not given: the % may be the effect or the level left
Mus musculus [10] = assay: Anti-diabetic activity against 16 hrs fasted male Kunming mouse assessed as decrease in postprandial blood glucose at 20 mg/kg, IG after 30 mins […] of sucrose administered and measured upto 2 hrs by sucrose tolerance test; type: functional; settings: po
Mus musculus [11] = assay: Anti-diabetic activity against 16 hrs fasted male Kunming mouse assessed as AUC of postprandial blood glucose at 20 mg/kg, IG after 30 mins […] of sucrose administered and measured upto 2 hrs by sucrose tolerance test (reference value: 810.40 +/- 75.53 mM.min); type: functional, organism-based
[12] = molecular target: T2, Alpha-glucosidase (Saccharomyces cerevisiae S288c); assay: Binding affinity to Saccharomyces cerevisiae alpha-glucosidase assessed as decrease in protein stability by measuring alpha-helix structure at 5 uM measured after 5 mins by CD spectrum assay (reference value: 84.50%); parameters: scale not given: the % may be the effect or the level left
[13] = molecular target: T2, Alpha-glucosidase (Saccharomyces cerevisiae S288c); assay: Binding affinity to Saccharomyces cerevisiae alpha-glucosidase assessed as decrease in protein stability by measuring alpha-helix structure at 7.5 uM measured after 5 mins by CD spectrum assay (reference value: 84.50%); parameters: scale not given: the % may be the effect or the level left
[14] = molecular target: T2, Alpha-glucosidase (Saccharomyces cerevisiae S288c); assay: Binding affinity to Saccharomyces cerevisiae alpha-glucosidase assessed as decrease in protein stability by measuring alpha-helix structure at 10 uM measured after 5 mins by CD spectrum assay (reference value: 84.50%); parameters: scale not given: the % may be the effect or the level left
[15] = molecular target: T2, Alpha-glucosidase (Saccharomyces cerevisiae S288c); assay: Binding affinity to Saccharomyces cerevisiae alpha-glucosidase assessed as decrease in protein stability by measuring alpha-helix structure at 15 uM measured after 5 mins by CD spectrum assay (reference value: 84.50%); parameters: scale not given: the % may be the effect or the level left
[16] = molecular target: T2, Alpha-glucosidase (Saccharomyces cerevisiae S288c); assay: Binding affinity to Saccharomyces cerevisiae alpha-glucosidase assessed as decrease in protein stability by measuring alpha-helix structure at 20 uM measured after 5 mins by CD spectrum assay (reference value: 84.50%); parameters: scale not given: the % may be the effect or the level left
[17] = molecular target: T2, Alpha-glucosidase (Saccharomyces cerevisiae S288c); assay: Binding affinity to Saccharomyces cerevisiae alpha-glucosidase assessed as decrease in protein stability by measuring beta-sheet structure at 5 uM measured after 5 mins by CD spectrum assay (reference value: 4.30%); parameters: scale not given: the % may be the effect or the level left
[18] = molecular target: T2, Alpha-glucosidase (Saccharomyces cerevisiae S288c); assay: Binding affinity to Saccharomyces cerevisiae alpha-glucosidase assessed as decrease in protein stability by measuring beta-sheet structure at 7.5 uM measured after 5 mins by CD spectrum assay (reference value: 4.30%); parameters: scale not given: the % may be the effect or the level left
[19] = molecular target: T2, Alpha-glucosidase (Saccharomyces cerevisiae S288c); assay: Binding affinity to Saccharomyces cerevisiae alpha-glucosidase assessed as decrease in protein stability by measuring beta-sheet structure at 10 uM measured after 5 mins by CD spectrum assay (reference value: 4.30%); parameters: scale not given: the % may be the effect or the level left
[20] = molecular target: T2, Alpha-glucosidase (Saccharomyces cerevisiae S288c); assay: Binding affinity to Saccharomyces cerevisiae alpha-glucosidase assessed as decrease in protein stability by measuring beta-sheet structure at 15 uM measured after 5 mins by CD spectrum assay (reference value: 4.30%); parameters: scale not given: the % may be the effect or the level left
[21] = molecular target: T2, Alpha-glucosidase (Saccharomyces cerevisiae S288c); assay: Binding affinity to Saccharomyces cerevisiae alpha-glucosidase assessed as decrease in protein stability by measuring beta-sheet structure at 20 uM measured after 5 mins by CD spectrum assay (reference value: 4.30%); parameters: scale not given: the % may be the effect or the level left
[22] = molecular target: T2, Alpha-glucosidase (Saccharomyces cerevisiae S288c); assay: Binding affinity to Saccharomyces cerevisiae alpha-glucosidase assessed as decrease in protein stability by measuring beta-turn structure at 5 uM measured after 5 mins by CD spectrum assay (reference value: 6.80%); parameters: scale not given: the % may be the effect or the level left
[23] = molecular target: T2, Alpha-glucosidase (Saccharomyces cerevisiae S288c); assay: Binding affinity to Saccharomyces cerevisiae alpha-glucosidase assessed as decrease in protein stability by measuring beta-turn structure at 7.5 uM measured after 5 mins by CD spectrum assay (reference value: 6.80%); parameters: scale not given: the % may be the effect or the level left
[24] = molecular target: T2, Alpha-glucosidase (Saccharomyces cerevisiae S288c); assay: Binding affinity to Saccharomyces cerevisiae alpha-glucosidase assessed as decrease in protein stability by measuring beta-turn structure at 10 uM measured after 5 mins by CD spectrum assay (reference value: 6.80%); parameters: scale not given: the % may be the effect or the level left
[25] = molecular target: T2, Alpha-glucosidase (Saccharomyces cerevisiae S288c); assay: Binding affinity to Saccharomyces cerevisiae alpha-glucosidase assessed as decrease in protein stability by measuring beta-turn structure at 15 uM measured after 5 mins by CD spectrum assay (reference value: 6.80%); parameters: scale not given: the % may be the effect or the level left
[26] = molecular target: T2, Alpha-glucosidase (Saccharomyces cerevisiae S288c); assay: Binding affinity to Saccharomyces cerevisiae alpha-glucosidase assessed as decrease in protein stability by measuring beta-turn structure at 20 uM measured after 5 mins by CD spectrum assay (reference value: 6.80%); parameters: scale not given: the % may be the effect or the level left
[27] = molecular target: T2, Alpha-glucosidase (Saccharomyces cerevisiae S288c); assay: Binding affinity to Saccharomyces cerevisiae alpha-glucosidase assessed as decrease in protein stability by measuring random coil structure at 5 uM measured after 5 mins by CD spectrum assay (reference value: 6.20%); parameters: scale not given: the % may be the effect or the level left
[28] = molecular target: T2, Alpha-glucosidase (Saccharomyces cerevisiae S288c); assay: Binding affinity to Saccharomyces cerevisiae alpha-glucosidase assessed as decrease in protein stability by measuring random coil structure at 7.5 uM measured after 5 mins by CD spectrum assay (reference value: 6.20%); parameters: scale not given: the % may be the effect or the level left
[29] = molecular target: T2, Alpha-glucosidase (Saccharomyces cerevisiae S288c); assay: Binding affinity to Saccharomyces cerevisiae alpha-glucosidase assessed as decrease in protein stability by measuring random coil structure at 10 uM measured after 5 mins by CD spectrum assay (reference value: 6.20%); parameters: scale not given: the % may be the effect or the level left
[30] = molecular target: T2, Alpha-glucosidase (Saccharomyces cerevisiae S288c); assay: Binding affinity to Saccharomyces cerevisiae alpha-glucosidase assessed as decrease in protein stability by measuring random coil structure at 15 uM measured after 5 mins by CD spectrum assay (reference value: 6.20%); parameters: scale not given: the % may be the effect or the level left
[31] = molecular target: T2, Alpha-glucosidase (Saccharomyces cerevisiae S288c); assay: Binding affinity to Saccharomyces cerevisiae alpha-glucosidase assessed as decrease in protein stability by measuring random coil structure at 20 uM measured after 5 mins by CD spectrum assay (reference value: 6.20%); parameters: scale not given: the % may be the effect or the level left
CYP1A2 = molecular target: T3, CYP1A2 (Rattus norvegicus, UniProt P04799); assay: Inhibition of CYP1A2 in rat liver microsomes assessed as remaining activity at 100 uM measured after 30 mins by LC-MS/MS analysis; type: ADME, Microsome; settings: read-out: Activity
T3 sequence (P04799 whole entry): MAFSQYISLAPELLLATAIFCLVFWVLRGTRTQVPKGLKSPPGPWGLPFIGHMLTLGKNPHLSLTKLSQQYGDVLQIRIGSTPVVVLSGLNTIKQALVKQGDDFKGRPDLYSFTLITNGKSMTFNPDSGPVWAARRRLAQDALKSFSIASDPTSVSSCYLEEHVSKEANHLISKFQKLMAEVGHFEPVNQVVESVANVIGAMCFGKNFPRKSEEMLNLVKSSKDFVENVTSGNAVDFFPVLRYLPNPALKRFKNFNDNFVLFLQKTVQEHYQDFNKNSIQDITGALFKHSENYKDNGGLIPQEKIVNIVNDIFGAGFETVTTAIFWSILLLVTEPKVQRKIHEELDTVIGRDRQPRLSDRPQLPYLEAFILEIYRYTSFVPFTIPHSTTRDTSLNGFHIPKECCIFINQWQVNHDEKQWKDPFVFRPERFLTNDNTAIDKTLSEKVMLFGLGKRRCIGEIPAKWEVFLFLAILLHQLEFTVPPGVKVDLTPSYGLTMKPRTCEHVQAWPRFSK

CYP2B6 = assay: Inhibition of CYP2B6 in rat liver microsomes assessed as remaining activity at 100 uM measured after 30 mins by LC-MS/MS analysis; type: ADME, Microsome; settings: read-out: Activity
CYP2C9 = assay: Inhibition of CYP2C9 in rat liver microsomes assessed as remaining activity at 100 uM measured after 30 mins by LC-MS/MS analysis; type: ADME, Microsome; settings: read-out: Activity
CYP2C19 = assay: Inhibition of CYP2C19 in rat liver microsomes assessed as remaining activity at 100 uM measured after 30 mins by LC-MS/MS analysis; type: ADME, Microsome; settings: read-out: Activity
CYP2D6 = assay: Inhibition of CYP2D6 in rat liver microsomes assessed as remaining activity at 100 uM measured after 30 mins by LC-MS/MS analysis; type: ADME, Microsome; settings: read-out: Activity
CYP2E1 = CYP2E1 (Rattus norvegicus, UniProt P05182); assay: Inhibition of CYP2E1 in rat liver microsomes assessed as remaining activity at 100 uM measured after 30 mins by LC-MS/MS analysis; type: ADME, Microsome; settings: read-out: Activity
Chain of CYP2E1 (P05182 whole entry): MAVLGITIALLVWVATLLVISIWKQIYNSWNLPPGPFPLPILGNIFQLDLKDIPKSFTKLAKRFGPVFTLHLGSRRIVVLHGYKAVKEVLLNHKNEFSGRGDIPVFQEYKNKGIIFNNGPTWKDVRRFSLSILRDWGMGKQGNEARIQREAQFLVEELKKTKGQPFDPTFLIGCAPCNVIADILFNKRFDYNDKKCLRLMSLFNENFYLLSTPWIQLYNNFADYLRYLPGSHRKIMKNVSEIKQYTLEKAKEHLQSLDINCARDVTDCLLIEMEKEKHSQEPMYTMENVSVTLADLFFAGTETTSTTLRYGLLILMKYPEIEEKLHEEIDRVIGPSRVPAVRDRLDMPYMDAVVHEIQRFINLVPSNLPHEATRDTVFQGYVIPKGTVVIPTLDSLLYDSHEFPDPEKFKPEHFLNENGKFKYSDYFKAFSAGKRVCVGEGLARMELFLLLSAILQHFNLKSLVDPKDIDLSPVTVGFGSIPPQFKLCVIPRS

CYP3A4 = assay: Inhibition of CYP3A4 in rat liver microsomes assessed as remaining activity at 100 uM measured after 30 mins by LC-MS/MS analysis; type: ADME, Microsome; settings: read-out: Activity
[32] = Cytotoxicity against human HEK293 cells assessed as cell viability at 50 uM measured after 24 hrs by MTT assay relative to control; type: toxicity, cell-based; settings: read-out: Activity
[33] = Cytotoxicity against human HEK293 cells assessed as cell viability at 100 uM measured after 24 hrs by MTT assay relative to control; type: toxicity, cell-based; settings: read-out: Activity
[34] = Cytotoxicity against human HEK293 cells assessed as cell viability at 150 uM measured after 24 hrs by MTT assay relative to control; type: toxicity, cell-based; settings: read-out: Activity
[35] = Cytotoxicity against human HEK293 cells assessed as cell viability at 200 uM measured after 24 hrs by MTT assay relative to control; type: toxicity, cell-based; settings: read-out: Activity

IC50 (Alpha-glucosidase [1]): 31.23 µM
Ki (Alpha-glucosidase [2]): 40.46 µM
Ki (Alpha-glucosidase [3]): 87.56 µM
Activity [4]: 87.7%
KSV [5]: 1.57 10^5L/mol
Kq [6]: 1.57 10^13L/mol
Ka [7]: 3.16 10^4L/mol
Activity [8]: 31.9%
Activity [9]: 37.4%
Activity [12]: 66.5%
Activity [13]: 63.4%
Activity [14]: 62.7%
Activity [15]: 60.2%
Activity [16]: 57.3%
Activity [17]: 5.8%
Activity [18]: 6.1%
Activity [19]: 6.3%
Activity [20]: 6.6%
Activity [21]: 7%
Activity [22]: 10.1%
Activity [23]: 10.6%
Activity [24]: 10.8%
Activity [25]: 11.2%
Activity [26]: 11.6%
Activity [27]: 16%
Activity [28]: 17.5%
Activity [29]: 18.4%
Activity [30]: 19.7%
Activity [31]: 21.2%
activity at 0.5 h, 100 µM (CYP1A2): 77.7%
activity at 0.5 h, 100 µM (CYP2B6): 98.7%
activity at 0.5 h, 100 µM (CYP2C9): 90.7%
activity at 0.5 h, 100 µM (CYP2C19): 75.4%
activity at 0.5 h, 100 µM (CYP2D6): 92.3%
activity at 0.5 h, 100 µM (CYP2E1): 92.6%
activity at 0.5 h, 100 µM (CYP3A4): 96.5%
Structure (SMILES): COc1cc(/C=N/Nc2nnc3n2N=C(c2ccccc2)CS3)cc(OC)c1O
inhibition in vivo at 20 mg/kg (Mus musculus [10]): 24.4%
AUC (Mus musculus [11]): 723 mM·min
viability at 24 h, 50 µM [32]: 100%
viability at 24 h, 100 µM [33]: 90.5%
viability at 24 h, 150 µM [34]: 81.2%
viability at 24 h, 200 µM [35]: 71.6%
